The values below come from patent US12521361B2, “Use of sodium octanoate in preparation of medicine for improving the efficacy of cardiopulmonary resuscitation and post-resuscitation multiple organ dysfunction” (ZHEJIANG UNIVERSITY, priority 2021, dated 2026).

Common to all, as to format: in vivo, domestic healthy male white pigs
For assay [1], the system named is model of cardiac arrest and resuscitation. The assay can be described thus: Cell apoptosis in heart, brain, kidney and intestine by TUNEL after resuscitation. Particulars: at 24 h after resuscitation, 28.5 mg/kg i.v., P<0.05, FIG. 5. Here is the method:
(§1) • 1. Setting model conditions: 8 min of cardiac arrest and 8 min of cardiopulmonary resuscitation. • 2. Cardiac arrest method: inducing ventricular fibrillation by right ventricular electrode discharge, and observing for 8 min without intervention. • 3. […]
(§2) • 1. Changes in physiological indexes such as heart rate, blood pressure, ETCO2, CBF, rSO2, and body temperature were dynamically monitored throughout the experiment, and the survival outcomes of the animals at 4 h and 24 h were recorded. • 2. During cardiopulmonary resuscitation, the changes in CPP, ETCO2, CBF, and rSO2 were continuously monitored dynamically, and the duration of cardiopulmonary resuscitation, number of defibrillation, dosage of adrenaline, and rate of return of spontaneous circulation of various groups of animals were recorded. • 3. Before modeling and at 1 h, 2 h, and 4 h after resuscitation, the changes in cardiac function such as SV and GEF were periodically detected by using a PiCCO monitor. • 4. […] The blood plasma was frozen and stored in a −80° C. deep hypothermia freezer, and serum levels of myocardial injury biomarker cardiac troponin I (cTnI), brain injury biomarker neuron specific enolase (NSE) and S100B protein (S100B), renal and intestinal injury biomarker creatinine (Cr) and intestinal fatty acid-binding protein (iFABP) were detected by using an enzyme-linked immunosorbent assay at selected time. • 5. […]

Assay [2] shares this test system. The assay can be described thus: Cardiac function (PiCCO) and myocardial injury biomarker after resuscitation. Particulars: 28.5 mg/kg i.v., P<0.05, FIG. 2. As for the experimental part: • 1. All animals started fasting without water deprivation 12 h before experiment. • 2. The experimental animals were firstly intramuscularly injected with midazolam by 0.4-0.5 mg/kg for induced anesthesia, connected to an electrocardiogram monitor, then injected with propofol by 2 mg/kg through ear vein for general anesthesia, and afterwards maintained in an anesthetic state through infusing 4 mg/kg/h via the vein. • 3. Endotracheal intubation, monitoring of partial pressure of end-tidal carbon dioxide (ETCO2), and mechanical ventilation were rapidly carried out, wherein ventilation parameters were an intermittent positive pressure ventilation (IPPV) mode, with oxygen concentration of 21%, tidal volume of 10 ml/kg, and positive end-expiratory pressure of 0 mmHg, and ETCO2 was maintained in a normal physiological range of 35-40 mmHg by adjusting respiratory frequency. • 4. Right femoral artery and vein were exposed by operation, and Swan-Ganz catheters were respectively disposed into thoracic aorta and right atrium, wherein the former was used to monitor aortic blood pressure and collect an arterial blood sample, and the catheter main chamber of the latter was used to monitor right atrial pressure and body temperature and collect a venous blood sample, a catheter side chamber was used to infuse a therapeutic medicine, and calculate the level of coronary perfusion pressure (CPP) according to the difference between decompression diastolic aortic and time-coincident right atrial pressures. • 5. Right external jugular vein was exposed by operation, and an inducing electrode for ventricular fibrillation was disposed into right ventricle to induce ventricular fibrillation later. • 6. Right internal jugular vein and left femoral artery were exposed by operation, a central venous catheter and a thermodilution arterial catheter were respectively disposed therein, and the two were connected to a pulse indication continuous cardiac output (PiCCO) monitor, for monitoring the changes of cardiac function including stroke volume (SV) and global ejection fraction (GEF). • 7. […]

For assay [3] the test system is unchanged. The assay can be described thus: Renal and intestinal injury biomarkers after resuscitation. Particulars: 28.5 mg/kg i.v., P<0.05, FIG. 4. As for the experimental part: as §1, §2
Assay [4] has the same test system. Nature of the assay: Outcomes of cardiopulmonary resuscitation and cardiac/cerebral perfusion in pig model of cardiac arrest and resuscitation. Here is the method:
• 1. All animals started fasting without water deprivation 12 h before experiment. • 2. The experimental animals were firstly intramuscularly injected with midazolam by 0.4-0.5 mg/kg for induced anesthesia, connected to an electrocardiogram monitor, then injected with propofol by 2 mg/kg through ear vein for general anesthesia, and afterwards maintained in an anesthetic state through infusing 4 mg/kg/h via the vein. • 3. Endotracheal intubation, monitoring of partial pressure of end-tidal carbon dioxide (ETCO2), and mechanical ventilation were rapidly carried out, wherein ventilation parameters were an intermittent positive pressure ventilation (IPPV) mode, with oxygen concentration of 21%, tidal volume of 10 ml/kg, and positive end-expiratory pressure of 0 mmHg, and ETCO2 was maintained in a normal physiological range of 35-40 mmHg by adjusting respiratory frequency. • 4. Right femoral artery and vein were exposed by operation, and Swan-Ganz catheters were respectively disposed into thoracic aorta and right atrium, wherein the former was used to monitor aortic blood pressure and collect an arterial blood sample, and the catheter main chamber of the latter was used to monitor right atrial pressure and body temperature and collect a venous blood sample, a catheter side chamber was used to infuse a therapeutic medicine, and calculate the level of coronary perfusion pressure (CPP) according to the difference between decompression diastolic aortic and time-coincident right atrial pressures. • 5. Right external jugular vein was exposed by operation, and an inducing electrode for ventricular fibrillation was disposed into right ventricle to induce ventricular fibrillation later. • 6. Right internal jugular vein and left femoral artery were exposed by operation, a central venous catheter and a thermodilution arterial catheter were respectively disposed therein, and the two were connected to a pulse indication continuous cardiac output (PiCCO) monitor, for monitoring the changes of cardiac function including stroke volume (SV) and global ejection fraction (GEF). • 7. Right carotid artery was exposed by operation, superficial fascia was stripped off, a carotid blood flow sensor was arranged, and then a blood flow velocity ultrasonic recorder was connected to monitor the change of carotid blood flow (CBF) in real time. • 8. The animals' forehead hair was shaved off, to expose forehead skin. The forehead skin was cleaned with alcohol, and attached with a cerebral oxygen monitoring probe, and then a cerebral oxygen monitor was attached to monitor the change of regional cerebral oxygen saturation (rSO2) in real time. • 9. The body temperature of the animals was maintained at a normal temperature of about 38° C. all the time by using a temperature control blanket.
• 1. Setting model conditions: 8 min of cardiac arrest and 8 min of cardiopulmonary resuscitation. • 2. Cardiac arrest method: inducing ventricular fibrillation by right ventricular electrode discharge, and observing for 8 min without intervention. • 3. Cardiopulmonary resuscitation method: • 1) continuous manual external chest compression; • 2) mechanical ventilation was carried out by using a respirator (parameters were IPPV (intermittent positive pressure ventilation) mode, with oxygen concentration of 100%, tidal volume of 7 ml/kg, respiratory frequency of 10 times/min, and positive end-expiratory pressure of 0 mmHg); • 3) adrenalin: when cardiopulmonary resuscitation was performed for 2 min, adrenalin was given by 20 μg/kg, thereafter, the same was repeated every 4 min; • 4) defibrillation: when cardiopulmonary resuscitation was performed for 8 min, 150 J electrical defibrillation was performed once; and • 5) if spontaneous circulation was not restored, cardiopulmonary resuscitation was immediately restarted for 2 min, followed by one time of defibrillation. This cycle was repeated for 5 times or less until the resuscitation was successful or declared to be failed. • 4. […]

Assay [5] has the same test system. Nature of the assay: Cerebral function (NDS) and brain injury biomarkers after resuscitation. The note with it: 28.5 mg/kg i.v., P<0.05, FIG. 3. As for the experimental part:
as §1, §2

Setting [6] is: starting 1 h after resuscitation.
Setting [7] is: during cardiopulmonary resuscitation, almost all time points, 28.5 mg/kg i.v., P<0.05, FIG. 1.
Where [8] appears, read: in words, 28.5 mg/kg i.v., P<0.05.
The mark [9] stands for this setting: pigs, sodium octanoate 28.5 mg/kg intravenously at start of CPR, n=8, P<0.05 vs CPR group.
The mark [10] stands for this setting: pigs, sodium octanoate 28.5 mg/kg intravenously at start of CPR, P<0.05 vs CPR group.

Marks after values point to notes of the source that are not given here.

Regarding `CCCCCCCC(=O)[O-].[Na+]` [SO, sodium octanoate], the “Cell apoptosis of various organs (heart, brain, kidney, intestine; TUNEL) compared with the CPR group” value in assay [1] is “remarkably reduced”. Also, in assay [2] (setting [6]), the “GEF (global ejection fraction) compared with the CPR group” value was “obviously higher” and the “SV (stroke volume) compared with the CPR group” value is given as “obviously higher”. In assay [2] (starting 4 h after resuscitation), the “Serum level of cTnI (cardiac troponin I) compared with the CPR group” value is listed as “markedly lower”. Further, the “Serum levels of Cr (creatinine) compared with the CPR group” value in assay [3] (at 2 h and 24 h after resuscitation) is given as “remarkably reduced”. Also, the “Serum level of iFABP (intestinal fatty acid-binding protein) compared with the CPR group” value in assay [3] (at 24 h after resuscitation) was “remarkably reduced”. In assay [4] (setting [7]), the “CBF (carotid blood flow) compared with the CPR group” value was “obviously higher”, the “CPP (coronary perfusion pressure) compared with the CPR group” value was “obviously higher”, the “ETCO2 (partial pressure of end-tidal carbon dioxide) compared with the CPR group” value is “obviously higher” and the “rSO2 (regional cerebral oxygen saturation) compared with the CPR group” value is recorded as “obviously higher”. Further, in assay [4] (setting [8]), the “Dosage of adrenaline compared with the CPR group” value is on record as “decreased”, the “Duration of cardiopulmonary resuscitation compared with the CPR group” value is listed as “shortened”, the “Number of defibrillation compared with the CPR group” value was “reduced” and the “Rate of return of spontaneous circulation compared with the CPR group” value is “increased”. The “Survival rates at 4 h and 24 h post-resuscitation compared with the CPR group” value in assay [4] (setting [8]) is “increased”. In addition, in assay [4] (pigs, 8 min cardiac arrest, sodium octanoate 28.5 mg/kg intravenously at start of CPR, n=8, P<0.05 vs CPR group), the “Duration of cardiopulmonary resuscitation” value was 8.00 ± 0.00 min. In assay [4] (setting [9]), the Dosage of adrenaline worked out at 1.59 ± 0.08 mg and the Number of defibrillation stood at 1.00 ± 0.00 n. In assay [4] (setting [10]), the 4-h survival is listed as 8/8^#, the 24-h survival is 8/8^# and the “Return of spontaneous circulation” value is 8/8^#. For the same molecule, the “Serum level of S100B compared with the CPR group” value in assay [5] (at 1 h, 2 h, and 24 h after resuscitation) is “remarkably reduced”. Moreover, the “Serum level of NSE (neuron specific enolase) compared with the CPR group” value in assay [5] (at 4 h and 24 h after resuscitation) is recorded as “remarkably reduced”. In assay [5] (at 24 h after resuscitation), the “NDS (neurological deficit score) compared with the CPR group” value is listed as “remarkably lower”.
